How the values were obtained:
[1] = Rat biodistribution of Tc-99m complexes of separated diastereoisomers of compound 1 (Example 23); format: in vivo, rats; conditions: for % id/organ, Blood / % id/organ, Brain / % id/organ, Liver: rats
Excerpt: The experiment of Example 22 was repeated using the separated diastereoisomers of compound 1. The results are given in the Table below and should be compared to those for compound 1 (the mixture) in the Table in […].

[2] = Clinical comparison of dl and meso diastereoisomers of Compound 1, whole body scanning (Example 25a); format: in vivo, normal volunteer subjects (human); conditions: 20 minutes p.i.; mean; human
Procedure: All clinical studies, involving comparisons between the Tc-99m complexes of dl and meso, and d,l and dl stereoisomers of Compound 1 were conducted in normal volunteer subjects at Aberdeen Royal Infirmary.
(a) Comparison of dl and meso diastereoisomers of Compound 1
Data is then taken from area of interest studies employing a whole body scanning device.

[3] = Clinical comparison of d, l and dl stereoisomers of Compound 1 (Example 25b); format: in vivo, normal volunteers (human); conditions: 30 minutes p.i.; mean of three studies; human
Procedure: The following table gives the mean of three studies for each stereoisomer, of percentage of injected dose in normal volunteers at 30 minutes p.i.

[4] = Rat biodistribution of Tc-99m complexes from isolated stereoisomers (Example 24); conditions: for % id/organ, Blood / % id/organ, Brain / % id/organ, Heart / % id/organ, Liver: (a) diastereoisomers, rats, mean from 3 animals; for difference in brain uptake, dl-isomer versus meso-isomer: see Example 24
Procedure: 0.1 ml of the Tc-99m complex solution was administered by intravenous injection (lateral tail vein) to each of five or six rats (140-220 g). The injected dose was equivalent to approximately 1 mCi of Tc-99m. Three rats were sacrificed at 2 minutes post injection, and 3 at 1 hour or 2 at 2 hours post injection. At dissection, the organs and blood samples shown in the following table were taken, and assayed for radioactivity. The uptake in each organ or tissue was calculated as a percentage of the total activity recovered.
Data in Tables (a) and (b) are the mean from 3 animals at each time point.

[5] = Animal biodistribution of Tc-99m complexes of ligands, no separation of stereoisomers (Example 22); format: in vivo, rats; conditions: i.v. rats
Procedure: The ratio of diastereoisomers in the Tc-99m complexes used in this experiment is not known.
The results at 2 minutes and 1 hour p.i. are the mean of 3 animals.
The results at 2 hours p.i. are the mean of 2 animals.

CC(=NO)[C@H](C)NCC(C)(C)CN[C@@H](C)C(C)=NO (relative stereo) [Compound 1 d1, dl-4,8-Diaza-3,6,6,9-tetramethylundecane-2,10-dione bis oxime]
% id/organ, Blood ([1]; 2 min p.i.): 11.42 % id/organ | % id/organ, Brain ([1]; 2 min p.i.): 1.99 % id/organ | % id/organ, Liver ([1]; 2 min p.i.): 9.42 % id/organ | % id/organ, Blood ([1]; 1 hour p.i.): 10.17 % id/organ | % id/organ, Brain ([1]; 1 hour p.i.): 1.90 % id/organ | % id/organ, Liver ([1]; 1 hour p.i.): 9.25 % id/organ | difference in brain uptake of the two isomers (factor) ([1]; dl versus meso, the better is the dl-isomer): 2.3 | % injected activity, Bladder + Urine [2]: 2.28 % injected activity | % injected activity, Brain [2]: 4.22 % injected activity | % injected activity, Kidneys [2]: 3.50 % injected activity | % injected activity, Liver [2]: 10.22 % injected activity | percentage of injected dose, Brain [3]: 4.16 percentage of injected dose | percentage of injected dose, Kidney [3]: 3.03 percentage of injected dose | percentage of injected dose, Liver [3]: 10.73 percentage of injected dose | % id/organ, Blood ([4]; 2 mins pi): 11.0 % id/organ | % id/organ, Brain ([4]; 2 mins pi): 2.1 % id/organ | % id/organ, Heart ([4]; 2 mins pi): 1.2 % id/organ | % id/organ, Liver ([4]; 2 mins pi): 11.3 % id/organ | % id/organ, Blood ([4]; 1 hr pi): 8.6 % id/organ | % id/organ, Brain ([4]; 1 hr pi): 1.6 % id/organ | % id/organ, Heart ([4]; 1 hr pi): 0.7 % id/organ | % id/organ, Liver ([4]; 1 hr pi): 11.9 % id/organ | brain retention and brain imaging, dl-isomer versus meso-isomer ([4]; in words): surprisingly superior to the complex of the meso-isomer

CC(=NO)[C@H](C)NCCCN[C@@H](C)C(C)=NO (relative stereo) [Compound 2 d1]
% id/organ, Blood ([4]; 2 mins pi): 10.5 % id/organ | % id/organ, Brain ([4]; 2 mins pi): 1.8 % id/organ | % id/organ, Heart ([4]; 2 mins pi): 1.1 % id/organ | % id/organ, Liver ([4]; 2 mins pi): 11.6 % id/organ | % id/organ, Blood ([4]; 1 hr pi): 7.8 % id/organ | % id/organ, Brain ([4]; 1 hr pi): 1.5 % id/organ | % id/organ, Heart ([4]; 1 hr pi): 0.7 % id/organ | % id/organ, Liver ([4]; 1 hr pi): 9.4 % id/organ | difference in brain uptake, dl-isomer versus meso-isomer ([4]; in words): do not show any marked difference in brain uptake

CC(=NO)[C@H](C)NCC(C)(C)CN[C@H](C)C(C)=NO [Compound 1 meso, meso-4,8-Diaza-3,6,6,9-tetramethylundecane-2,10-dione bis oxime]
% id/organ, Blood ([1]; 2 min p.i.): 5.33 % id/organ | % id/organ, Brain ([1]; 2 min p.i.): 0.78 % id/organ | % id/organ, Liver ([1]; 2 min p.i.): 26.86 % id/organ | % id/organ, Blood ([1]; 1 hour p.i.): 3.17 % id/organ | % id/organ, Brain ([1]; 1 hour p.i.): 0.53 % id/organ | % id/organ, Liver ([1]; 1 hour p.i.): 24.24 % id/organ | % injected activity, Bladder + Urine [2]: 0.6 % injected activity | % injected activity, Brain [2]: 1.85 % injected activity | % injected activity, Kidneys [2]: 1.3 % injected activity | % injected activity, Liver [2]: 16.6 % injected activity | % id/organ, Blood ([4]; 2 mins pi): 5.0 % id/organ | % id/organ, Brain ([4]; 2 mins pi): 1.1 % id/organ | % id/organ, Heart ([4]; 2 mins pi): 0.6 % id/organ | % id/organ, Liver ([4]; 2 mins pi): 19.9 % id/organ | % id/organ, Blood ([4]; 1 hr pi): 3.1 % id/organ | % id/organ, Brain ([4]; 1 hr pi): 0.7 % id/organ | % id/organ, Heart ([4]; 1 hr pi): 0.2 % id/organ | % id/organ, Liver ([4]; 1 hr pi): 23.7 % id/organ

CC(=NO)[C@H](C)NCCCN[C@H](C)C(C)=NO [Compound 2 meso]
% id/organ, Blood ([4]; 2 mins pi): 6.9 % id/organ | % id/organ, Brain ([4]; 2 mins pi): 1.7 % id/organ | % id/organ, Heart ([4]; 2 mins pi): 0.6 % id/organ | % id/organ, Liver ([4]; 2 mins pi): 17.9 % id/organ | % id/organ, Blood ([4]; 1 hr pi): 2.8 % id/organ | % id/organ, Brain ([4]; 1 hr pi): 1.4 % id/organ | % id/organ, Heart ([4]; 1 hr pi): 0.2 % id/organ | % id/organ, Liver ([4]; 1 hr pi): 20.7 % id/organ | difference in brain uptake, dl-isomer versus meso-isomer ([4]; in words): do not show any marked difference in brain uptake

CCC(NCCCNC(CC)C(C)=NO)C(C)=NO (stereo not shown) [Compound 3, 4,8-Diaza-3,9-diethylundecane-2,10-dione bis oxime]
% id/organ, Blood ([5]; 2 min pi, mean of 3 animals): 6.8 % id/organ | % id/organ, Brain ([5]; 2 min pi, mean of 3 animals): 1.1 % id/organ | % id/organ, Heart ([5]; 2 min pi, mean of 3 animals): 0.2 % id/organ | % id/organ, Liver ([5]; 2 min pi, mean of 3 animals): 27.8 % id/organ | % id/organ, Blood ([5]; 2 hr pi, mean of 2 animals): 2.1 % id/organ | % id/organ, Brain ([5]; 2 hr pi, mean of 2 animals): 0.7 % id/organ | % id/organ, Heart ([5]; 2 hr pi, mean of 2 animals): 0.1 % id/organ | % id/organ, Liver ([5]; 2 hr pi, mean of 2 animals): 17.0 % id/organ

CCC(=NO)C(C)NCCCNC(C)C(CC)=NO (stereo not shown) [Compound 4, 5,9-Diaza-4,10-dimethyltridecane-3,11-dione bis oxime]
% id/organ, Blood ([5]; 2 min pi, mean of 3 animals): 13.4 % id/organ | % id/organ, Brain ([5]; 2 min pi, mean of 3 animals): 1.6 % id/organ | % id/organ, Liver ([5]; 2 min pi, mean of 3 animals): 15.6 % id/organ | % id/organ, Blood ([5]; 1 hr pi, mean of 3 animals): 5.7 % id/organ | % id/organ, Brain ([5]; 1 hr pi, mean of 3 animals): 1.5 % id/organ | % id/organ, Liver ([5]; 1 hr pi, mean of 3 animals): 12.7 % id/organ
